The values that follow come from US20190233836A1, “MEANS AND METHODS TO INCREASE COUMARIN PRODUCTION” (VIB VZW, priority 2016, published 2019).

The experiment relates to COSY. Put plainly: Enzymatic activity of COSY: in vitro assay combined with tobacco 4CL and CoA. Format: biochemical, Arabidopsis thaliana. The following applies: 4CL and COSY added simultaneously, CoA present; purified COSY expressed in E. coli. An excerpt:
FIG. 7: Enzymatic activity of COSY. COSY and 4CL were supplemented with either 2-hydroxy-p-coumaric acid (2OHpCA), 6-hydroxycaffeic acid (6OHCA) or 6-hydroxyferulic acid (6OHFA). Umbelliferone, esculetin and scopoletin were formed, respectively, only in the presence of CoA and the enzymes 4CL and COSY. The y-axis represents the normalized abundance, error bars show the standard deviation (n=4).
Although the idea of spontaneous isomerization and lactonisation in the biosynthesis of coumarins is now widely accepted in literature (Matsumoto S. et al., 2012; Yang et al., 2015) our cosy mutant data in Example 1 clearly contradict this. When we took a closer examination at the lactonisation reaction of the coumarin core structures we investigated the possible resemblance to an esterification-type reaction mediated by BAHD acyltransferases. BAHD family members utilize activated CoA-thioesters as acyl-donors and an alcohol or amine as the acyl acceptor to form an ester or amide, respectively. We therefore hypothesized that COUMARIN SYNTHASE (COSY) could be a BAHD acyltransferase responsible for the isomerization and lactonization of ortho-hydroxy-cinnamoyl CoA thioesters into coumarins. To verify the catalytic activity of COSY in vitro, COSY was expressed in Escherichia coli and the corresponding COSY protein purified. Potential substrates were chosen based on the phenolic profiling of the cosy mutants. […] Because neither 2′-hydroxy-p-coumaroyl-CoA, 6′-caffeoyl-CoA nor 6′-hydroxyferuloyl-CoA were commercially available, the corresponding acids were synthesized and the enzymatic assays were performed in combination with a tobacco 4-COUMARATE:CoA LIGASE (4CL) to catalyze the formation of the corresponding CoA thioesters in situ (Beuerle & Pichersky, 2002). In the samples where 4CL and COSY were added simultaneously, seemingly 100% 2-hydroxy-p-coumaric acid and 6-hydroxyferulic acid were converted into the corresponding coumarins, i.e., umbelliferone and scopoletin. […]

With `COc1cc(/C=C/C(=O)O)c(O)cc1O` [6-hydroxyferulic acid], the “substrate converted into the corresponding coumarin (umbelliferone, scopoletin, esculetin)” value is given as about 100%. Under `O=C(O)/C=C/c1cc(O)c(O)cc1O` [6-hydroxycaffeic acid] stands “About 50%”; under `O=C(O)/C=C/c1ccc(O)cc1O` [2-hydroxy-p-coumaric acid], about 100%.
